Measured values reported in patent US9809625B2, “Immunomodulators” (BRISTOL-MYERS SQUIBB COMPANY, priority 2015, dated 2017).
Bridge positions count the residues as written; N and C are the ends. Square brackets hold non-standard residues; d marks the D form. Peptide text beside a SMILES is read from it. * marks the point of attachment. ξ: configuration not given here. Trp(1-CH2COOH) = N[C@@H](Cc1cn(CC(=O)O)c2ccccc12)C(=O)O; Hyp = O=C(O)[C@@H]1C[C@@H](O)CN1; ξW = NC(Cc1c[nH]c2ccccc12)C(=O)O; NMeNle = CCCC[C@H](NC)C(=O)O; X5 = Clc1ccc(C2CCN(*)CC2)cc1; X3 = CN(CCN*)C(=O)OC(C)(C)C; NH(CH2)3NMe2 = CN(C)CCCN*; NMeA = CN[C@@H](C)C(=O)O; Piperidide = C1CCN(*)CC1; Dab = NCC[C@H](N)C(=O)O; X4 = [N-]=[N+]=NCCCCCN*; Dap = NC[C@H](N)C(=O)O; NH(propargyl) = C#CCN*; X10 = c1ccc(OCCN*)cc1; NHBn = c1ccc(CN*)cc1; NHCH2CH2OMe = COCCN*; X12 = OCC1CCN(*)CC1; NHAllyl = C=CCN*; Sar = CNCC(=O)O

These compounds were tested against T1, PD-1-Ig binding to PD-L1-TVMV-His (PD-L1-His) (Homo sapiens, UniProt Q9NZQ7) (assay: PD-1/PD-L1 Homogenous Time-Resolved Fluorescence (HTRF) binding assay). Details: PD-1-Ig (20 nM)/PD-L1-His (10 nM), range classes.
T1 construct: hPDL1(19-239)-TVMV-His; TVMV protease cleavage site (C); made in house; host or cells: HEK293T
Excerpt: Methods for Testing the Ability of Macrocyclic Peptides to Compete for the Binding of PD-1 to PD-L1 Using Homogenous Time-Resolved Fluorescence (HTRF) Binding Assays
The ability of the macrocyclic peptides of the present disclosure to bind to PD-L1 was investigated using a PD-1/PD-L1 Homogenous Time-Resolved Fluorescence (HTRF) binding assay.
Homogenous Time-Resolved Fluorescence (HTRF) Assays of Binding of Soluble PD-1 to Soluble PD-L1. Soluble PD-1 and soluble PD-L1 refers to proteins with carboxyl-end truncations that remove the transmembrane-spanning regions and are fused to heterologous sequences, specifically the Fc portion of the human immunoglobuling G sequence (Ig) or the hexahistidine epitope tag (His). All binding studies were performed in an HTRF assay buffer consisting of dPBS supplemented with 0.1% (w/v) bovine serum albumin and 0.05% (v/v) Tween-20. For the PD-1-Ig/PD-L1-His binding assay, inhibitors were pre-incubated with PD-L1-His (10 nM final) for 15 m in 4 μl of assay buffer, followed by addition of PD-1-Ig (20 nM final) in 1 μl of assay buffer and further incubation for 15 m. PD-L1 fusion proteins from either human, cynomologous macaques, mouse, or other species were used. HTRF detection was achieved using europium crypate-labeled anti-Ig monoclonal antibody (1 nM final) and allophycocyanin (APC) labeled anti-His monoclonal antibody (20 nM final). Antibodies were diluted in HTRF detection buffer and 5 μl was dispensed on top of binding reaction. The reaction was allowed to equilibrate for 30 minutes and signal (665 nm/620 nm ratio) was obtained using an EnVision fluorometer. Additional binding assays were established between PD-1-Ig/PD-L2-His (20 and 5 nM, respectively), CD80-His/PD-L1-Ig (100 and 10 nM, respectively) and CD80-His/CTLA4-Ig (10 and 5 nM, respectively). Binding/competition studies between biotinylated Compound No. 71 and human PD-L1-His were performed as follows. Macrocyclic peptide inhibitors were pre-incubated with PD-L1-His (10 nM final) for 60 minutes in 4 μl of assay buffer followed by addition of biotinylated Compound No. 71 (0.5 nM final) in 1 μl of assay buffer. Binding was allowed to equilibrate for 30 minutes followed by addition of europium crypated labeled Streptavidin (2.5 pM final) and APC-labeled anti-His (20 nM final) in 5 μl of HTRF buffer. The reaction was allowed to equilibrate for 30 m and signal (665 nm/620 nm ratio) was obtained using an EnVision fluorometer.
Recombinant Proteins. Carboxyl-truncated human PD-1 (amino acids 25-167) with a C-terminal human Ig epitope tag [hPD-1 (25-167)-3S-IG] and human PD-L1 (amino acids 18-239) with a C-terminal His epitope tag [hPD-L1(19-239)-tobacco vein mottling virus protease cleavage site (TVMV)-His] were expressed in HEK293T cells and purified sequentially by recombinant Protein A affinity chromatography and size exclusion chromatography. Human PD-L2-His (Sino Biologicals), CD80-His (Sino Biologicals), CTLA4-Ig (RnD Systems) were all obtained through commercial sources.

T1 sequence (Q9NZQ7 with tags, fused parts or gaps): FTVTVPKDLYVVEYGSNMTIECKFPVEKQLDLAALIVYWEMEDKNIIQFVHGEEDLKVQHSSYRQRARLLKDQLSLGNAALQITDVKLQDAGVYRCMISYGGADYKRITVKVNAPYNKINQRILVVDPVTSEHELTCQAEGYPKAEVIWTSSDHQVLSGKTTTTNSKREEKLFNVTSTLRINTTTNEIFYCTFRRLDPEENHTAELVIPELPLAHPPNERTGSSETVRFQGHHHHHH

SMILES | IC50 [nM]
CCCC[C@H]1C(=O)N(C)[C@@H](CCCC)C(=O)N[C@@H](CC(C)C)C(=O)N[C@H](C(=O)NCC(=O)N2CCCCC2)CSCC(=O)N[C@@H](Cc2ccc(O)cc2)C(=O)N(C)[C@@H](C)C(=O)N[C@@H](CC(N)=O)C(=O)N2CCC[C@H]2C(=O)N[C@@H](CN)C(=O)N[C@@H](CC(C)C)C(=O)N2C[C@H](O)C[C@H]2C(=O)N[C@@H](Cc2c[nH]c3ccccc23)C(=O)NCC(=O)N[C@@H](Cc2c[nH]c3ccccc23)C(=O)N1C [Example 13086] ({CH2CO}-Y[NMeA]NP[Dap]L[Hyp]WGW[NMeNle][NMeNle]LCG-Piperidide; thioether N-14) | 4 to 9.9
CCCC[C@H]1C(=O)N(C)[C@@H](CCCC)C(=O)N[C@@H](CC(C)C)C(=O)N[C@H](C(=O)NCC(=O)N2CCC(c3ccc(Cl)cc3)CC2)CSCC(=O)N[C@@H](Cc2ccc(O)cc2)C(=O)N(C)[C@@H](C)C(=O)N[C@@H](CC(N)=O)C(=O)N2CCC[C@H]2C(=O)N[C@@H](CN)C(=O)N[C@@H](CC(C)C)C(=O)N2C[C@H](O)C[C@H]2C(=O)N[C@@H](Cc2c[nH]c3ccccc23)C(=O)NCC(=O)NC(Cc2c[nH]c3ccccc23)C(=O)N1C (stereo partly drawn) [Example 13115] ({CH2CO}-Y[NMeA]NP[Dap]L[Hyp]WG[ξW][NMeNle][NMeNle]LCG-X5; thioether N-14) | 10 to 60
CCCC[C@H]1C(=O)N(C)[C@@H](CCCC)C(=O)N[C@@H](CC(C)C)C(=O)N[C@H](C(=O)NCC(=O)NCc2ccccc2)CSCC(=O)N[C@@H](Cc2ccc(O)cc2)C(=O)N(C)[C@@H](C)C(=O)N[C@@H](CC(N)=O)C(=O)N2CCC[C@H]2C(=O)N[C@@H](CN)C(=O)N[C@@H](CC(C)C)C(=O)N2C[C@H](O)C[C@H]2C(=O)N[C@@H](Cc2c[nH]c3ccccc23)C(=O)N[C@@H](CCN)C(=O)N[C@@H](Cc2cn(CC(=O)O)c3ccccc23)C(=O)N1C [Example 13080] ({CH2CO}-Y[NMeA]NP[Dap]L[Hyp]W[Dab][Trp(1-CH2COOH)][NMeNle][NMeNle]LCG-NHBn; thioether N-14) | 4 to 9.9
CCCC[C@H]1C(=O)N(C)[C@@H](CCCC)C(=O)N[C@@H](CC(C)C)C(=O)N[C@H](C(=O)NCC(=O)N2CCC(CO)CC2)CSCC(=O)N[C@@H](Cc2ccc(O)cc2)C(=O)N(C)[C@@H](C)C(=O)N[C@@H](CC(N)=O)C(=O)N2CCC[C@H]2C(=O)N[C@@H](CN)C(=O)N[C@@H](CC(C)C)C(=O)N2C[C@H](O)C[C@H]2C(=O)N[C@@H](Cc2c[nH]c3ccccc23)C(=O)NCC(=O)NC(Cc2c[nH]c3ccccc23)C(=O)N1C (stereo partly drawn) [Example 13111] ({CH2CO}-Y[NMeA]NP[Dap]L[Hyp]WG[ξW][NMeNle][NMeNle]LCG-X12; thioether N-14) | 10 to 60
CCCC[C@H]1C(=O)N(C)[C@@H](CCCC)C(=O)N[C@@H](CC(C)C)C(=O)N[C@H](C(=O)N(C)CC(N)=O)CSCC(=O)N[C@@H](Cc2ccc(O)cc2)C(=O)N(C)[C@@H](C)C(=O)N[C@@H](CC(N)=O)C(=O)N2CCC[C@H]2C(=O)N[C@@H](CN)C(=O)N[C@@H](CC(C)C)C(=O)N2C[C@H](O)C[C@H]2C(=O)N[C@@H](Cc2c[nH]c3ccccc23)C(=O)NCC(=O)N[C@@H](Cc2c[nH]c3ccccc23)C(=O)N1C [Example 13119] ({CH2CO}-Y[NMeA]NP[Dap]L[Hyp]WGW[NMeNle][NMeNle]LC[Sar]-NH2; thioether N-14) | 10 to 60
C#CCNC(=O)CNC(=O)[C@@H]1CSCC(=O)N[C@@H](Cc2ccc(O)cc2)C(=O)N(C)[C@@H](C)C(=O)N[C@@H](CC(N)=O)C(=O)N2CCC[C@H]2C(=O)N[C@@H](CN)C(=O)N[C@@H](CC(C)C)C(=O)N2C[C@H](O)C[C@H]2C(=O)N[C@@H](Cc2c[nH]c3ccccc23)C(=O)NCC(=O)NC(Cc2c[nH]c3ccccc23)C(=O)N(C)[C@@H](CCCC)C(=O)N(C)[C@@H](CCCC)C(=O)N[C@@H](CC(C)C)C(=O)N1 (stereo partly drawn) [Example 13096] ({CH2CO}-Y[NMeA]NP[Dap]L[Hyp]WG[ξW][NMeNle][NMeNle]LCG-{NH(propargyl)}; thioether N-14) | 10 to 60
CCCC[C@H]1C(=O)N(C)[C@@H](CCCC)C(=O)N[C@@H](CC(C)C)C(=O)N[C@H](C(=O)NCC(=O)NCCCN(C)C)CSCC(=O)N[C@@H](Cc2ccc(O)cc2)C(=O)N(C)[C@@H](C)C(=O)N[C@@H](CC(N)=O)C(=O)N2CCC[C@H]2C(=O)N[C@@H](CN)C(=O)N[C@@H](CC(C)C)C(=O)N2C[C@H](O)C[C@H]2C(=O)N[C@@H](Cc2c[nH]c3ccccc23)C(=O)NCC(=O)NC(Cc2c[nH]c3ccccc23)C(=O)N1C (stereo partly drawn) [Example 13098] ({CH2CO}-Y[NMeA]NP[Dap]L[Hyp]WG[ξW][NMeNle][NMeNle]LCG-{NH(CH2)3NMe2}; thioether N-14) | 10 to 60
C=CCNC(=O)CNC(=O)[C@@H]1CSCC(=O)N[C@@H](Cc2ccc(O)cc2)C(=O)N(C)[C@@H](C)C(=O)N[C@@H](CC(N)=O)C(=O)N2CCC[C@H]2C(=O)N[C@@H](CN)C(=O)N[C@@H](CC(C)C)C(=O)N2C[C@H](O)C[C@H]2C(=O)N[C@@H](Cc2c[nH]c3ccccc23)C(=O)NCC(=O)NC(Cc2c[nH]c3ccccc23)C(=O)N(C)[C@@H](CCCC)C(=O)N(C)[C@@H](CCCC)C(=O)N[C@@H](CC(C)C)C(=O)N1 (stereo partly drawn) [Example 13097] ({CH2CO}-Y[NMeA]NP[Dap]L[Hyp]WG[ξW][NMeNle][NMeNle]LCG-NHAllyl; thioether N-14) | 10 to 60
CCCC[C@H]1C(=O)N(C)[C@@H](CCCC)C(=O)N[C@@H](CC(C)C)C(=O)N[C@H](C(=O)NCC(=O)NCCCCCN=[N+]=[N-])CSCC(=O)N[C@@H](Cc2ccc(O)cc2)C(=O)N(C)[C@@H](C)C(=O)N[C@@H](CC(N)=O)C(=O)N2CCC[C@H]2C(=O)N[C@@H](CO)C(=O)N[C@@H](CCC(N)=O)C(=O)N2C[C@H](O)C[C@H]2C(=O)N[C@@H](Cc2c[nH]c3ccccc23)C(=O)N[C@@H](CO)C(=O)N[C@@H](Cc2c[nH]c3ccccc23)C(=O)N1C [Example 13081] ({CH2CO}-Y[NMeA]NPSQ[Hyp]WSW[NMeNle][NMeNle]LCG-X4; thioether N-14) | 10 to 60
CCCC[C@H]1C(=O)N(C)[C@@H](CCCC)C(=O)N[C@@H](CC(C)C)C(=O)N[C@H](C(=O)NCC(=O)NCCOc2ccccc2)CSCC(=O)N[C@@H](Cc2ccc(O)cc2)C(=O)N(C)[C@@H](C)C(=O)N[C@@H](CC(N)=O)C(=O)N2CCC[C@H]2C(=O)N[C@@H](CN)C(=O)N[C@@H](CC(C)C)C(=O)N2C[C@H](O)C[C@H]2C(=O)N[C@@H](Cc2c[nH]c3ccccc23)C(=O)NCC(=O)N[C@@H](Cc2c[nH]c3ccccc23)C(=O)N1C [Example 13108] ({CH2CO}-Y[NMeA]NP[Dap]L[Hyp]WGW[NMeNle][NMeNle]LCG-X10; thioether N-14) | 10 to 60
CCCC[C@H]1C(=O)N(C)[C@@H](CCCC)C(=O)N[C@@H](CC(C)C)C(=O)N[C@H](C(=O)NCC(=O)NCCN(C)C(=O)OC(C)(C)C)CSCC(=O)N[C@@H](Cc2ccc(O)cc2)C(=O)N(C)[C@@H](C)C(=O)N[C@@H](CC(N)=O)C(=O)N2CCC[C@H]2C(=O)N[C@@H](CN)C(=O)N[C@@H](CC(C)C)C(=O)N2C[C@H](O)C[C@H]2C(=O)N[C@@H](Cc2c[nH]c3ccccc23)C(=O)NCC(=O)NC(Cc2c[nH]c3ccccc23)C(=O)N1C (stereo partly drawn) [Example 13113] ({CH2CO}-Y[NMeA]NP[Dap]L[Hyp]WG[ξW][NMeNle][NMeNle]LCG-X3; thioether N-14) | 10 to 60
CCCC[C@H]1C(=O)N(C)[C@@H](CCCC)C(=O)N[C@@H](CC(C)C)C(=O)N[C@H](C(=O)NCC(=O)NCCOC)CSCC(=O)N[C@@H](Cc2ccc(O)cc2)C(=O)N(C)[C@@H](C)C(=O)N[C@@H](CC(N)=O)C(=O)N2CCC[C@H]2C(=O)N[C@@H](CN)C(=O)N[C@@H](CC(C)C)C(=O)N2C[C@H](O)C[C@H]2C(=O)N[C@@H](Cc2c[nH]c3ccccc23)C(=O)NCC(=O)N[C@@H](Cc2c[nH]c3ccccc23)C(=O)N1C [Example 13082] ({CH2CO}-Y[NMeA]NP[Dap]L[Hyp]WGW[NMeNle][NMeNle]LCG-NHCH2CH2OMe; thioether N-14) | 10 to 60
